Each compound was assayed on influenza A virus A/Aichi/2/68 (H3N2) on MDCK cells (assay: Cytopathic effect (CPE) assay). Details: not given.
Assay type: cell-based

Row | Compound | CPE result in words
1 | O=C(O)c1nc(Cc2ccc(F)cc2Br)nc(O)c1O | inactive
2 | O=C(O)c1c(O)c(=O)nc(Cc2ccccc2)n1Cc1ccccc1 | inactive
3 | O=C(NCc1ccccc1)c1nc(Cc2ccccc2-c2ccccc2)nc(O)c1O | inactive
4 | CNC(=O)c1nc(Cc2ccccc2-c2ccccc2)nc(O)c1O | inactive
5 | Cc1ccc(C)c(-c2ccccc2Cc2nc(O)c(O)c(C(=O)O)n2)c1 | inactive
6 | O=C(O)c1nc(Cc2cc(C(F)(F)F)ccc2Br)nc(O)c1O | inactive
7 | O=C(O)c1nc(Cc2ccccc2-c2ccccc2)nc(O)c1O | inactive
8 | CNC(=O)c1nc(CC2CCCCC2)nc(O)c1O | inactive
9 | O=C(O)c1c(O)c(=O)nc(Cc2ccccc2Br)n1Cc1ccccc1 | inactive
10 | CNC(=O)c1nc(Cc2ccccc2-c2ccccc2)n(C)c(=O)c1O | inactive
11 | O=C(NCc1ccc(F)cc1)c1nc(Cc2ccccc2Br)nc(O)c1O | inactive
12 | Cn1c(CC2(c3ccccc3)CCCC2)nc(C(=O)O)c(O)c1=O | inactive
13 | Cn1c(NS(=O)(=O)Cc2ccc(Cl)cc2)nc(C(=O)O)c(O)c1=O | inactive
14 | O=C(O)c1nc(Cc2ccccc2Br)nc(O)c1O | inactive
15 | CNC(=O)c1nc(NS(=O)(=O)Cc2ccc(C)cc2)n(C)c(=O)c1O | inactive
16 | CNC(=O)c1nc(Cc2ccccc2Br)nc(O)c1O | inactive
17 | CNC(=O)c1nc(NS(=O)(=O)Cc2ccccc2)n(C)c(=O)c1O | inactive
18 | COC(=O)c1c(O)c(=O)nc(Cc2ccccc2)n1Cc1ccccc1 | inactive
19 | Cc1ccccc1Cc1nc(O)c(O)c(C(=O)O)n1 | inactive
20 | Cn1c(Cc2ccccc2-c2ccccc2)nc(C(=O)O)c(O)c1=O | inactive

Row | Compound | CPE result in words
21 | O=C(NCc1ccccc1)c1nc(CC2(c3ccccc3)CCCC2)nc(O)c1O | inactive
22 | CC(C)NC(=O)c1nc(Cc2ccccc2-c2ccccc2)n(C)c(=O)c1O | inactive
23 | COC(=O)c1nc(Cc2ccc(F)cc2Br)nc(O)c1O | inactive
24 | O=C(O)c1nc(CC(c2ccccc2)c2ccccc2)nc(O)c1O | inactive
25 | COC(=O)c1nc(Cc2ccccc2Br)nc(O)c1OC(C)=O | inactive
26 | O=C(O)c1nc(CC2CCCCC2)nc(O)c1O | inactive
27 | CCOC(=O)c1nc(Cc2cncn2Cc2ccccc2)nc(O)c1O | inactive
28 | CNC(=O)c1nc(NS(=O)(=O)Cc2ccc(Cl)cc2)n(C)c(=O)c1O | inactive
29 | Cc1ccccc1-c1ccccc1Cc1nc(O)c(O)c(C(=O)O)n1 | inactive
30 | O=C(NCc1ccc(Cl)cc1)c1nc(Cc2ccccc2Br)nc(O)c1O | inactive
31 | CNC(=O)c1nc(NS(=O)(=O)Cc2cccc(C)c2)n(C)c(=O)c1O | inactive
32 | CCOC(=O)c1nc(CC2CCCCC2)nc(O)c1O | inactive
33 | O=C(NCc1ccc(Cl)cc1)c1nc(Cc2ccccc2-c2ccccc2)nc(O)c1O | inactive
34 | Cn1c(Cc2ccccc2-c2ccccc2)nc(C(N)=O)c(O)c1=O | inactive
35 | NC(=O)c1nc(Cc2ccc(F)cc2Br)nc(O)c1O | inactive
36 | Cc1cccc(-c2ccccc2Cc2nc(O)c(O)c(C(=O)O)n2)c1 | inactive
37 | COC(=O)c1nc(Cc2ccccc2-c2ccccc2C)nc(O)c1O | inactive
38 | CNC(=O)c1nc(Cc2ccccc2-c2cc(C)ccc2C)nc(O)c1O | inactive
39 | COC(=O)c1nc(CC2CCCCC2)n(C)c(=O)c1O | inactive

Same assay, conditions: Influenza A virus, H3N2, MDCK, in Canis lupus familiaris, 48 h

Row | Compound | IC50 [µM]
40 | COC(=O)c1nc(CC2(c3ccccc3)CCCC2)nc(O)c1O | 12
41 | COC(=O)c1nc(Cc2ccccc2-c2cc(C)ccc2C)nc(O)c1O | 16
42 | CCOC(=O)c1nc(Cc2ccccc2-c2cc(C)ccc2C)nc(O)c1O | 9.1
43 | CNC(=O)c1nc(CC2(c3ccccc3)CCCC2)n(C)c(=O)c1O | 11
44 | O=C(c1nc(Cc2ccccc2-c2ccccc2)nc(O)c1O)N1CCCC1 | 89
45 | O=C(O)c1nc(CC2(c3ccccc3)CCCC2)nc(O)c1O | 49
46 | O=C(NCCc1ccccc1)c1nc(Cc2ccccc2-c2ccccc2)nc(O)c1O | 8
47 | CC(C)NC(=O)c1nc(Cc2ccccc2-c2ccccc2)nc(O)c1O | 23
48 | O=C(NCc1ccc(F)cc1)c1nc(Cc2ccccc2-c2ccccc2)nc(O)c1O | 10
49 | NC(=O)c1nc(CC2(c3ccccc3)CCCC2)nc(O)c1O | 42
50 | COC(=O)c1c(O)c(=O)nc(Cc2ccccc2Br)n1Cc1ccccc1 | 34
51 | CNC(=O)c1nc(CC2(c3ccccc3)CCCC2)nc(O)c1O | 22
52 | Cc1ccc(C)c(-c2ccccc2Cc2nc(O)c(O)c(C(=O)OC(C)(C)C)n2)c1 | 0.11

Reference: patent US8921388B2, “Dihydroxypyrimidine carbonic acid derivatives and their use in the treatment, amelioration or prevention of a viral disease” (priority 2012, dated 2014)
